Key:
[1] = system: lymphoblasts of CDG-Ia diseases; assay: inhibition of incorporation of 2-[3H]mannose into cellular glycoconjugates ("radioactivity"); type: cell-based, human; conditions: dose of 500 μM; for Radioactivity (inhibition, by competition, of the binding of 2-[3H]mannose-1 phosphate): percentage relative to the controls, lymphoblasts of CDG-Ia, 5 trials per product; for effectiveness in inhibiting the incorporation of radioactive mannose into glycoproteins (in words): lymphoblasts, comparison between products
Description: (§1) The compounds of formula I, II and III were tested as prodrugs (i.e. as intracellular sources of Man-1 P), on the one hand, in order to evaluate their toxicity and, on the other hand, in order to assess their capacity to inhibit the incorporation of 2-[^3H]mannose into cellular glycoconjugates. Indeed, while they can generate Man-1 P in cells, it will be in competition with 2-[^3H]mannose-1 phosphate for entering the pathway for biosynthesis of glycoproteins (see Eklund, E. A., et al. cited above).
(§2) The products were tested (5 trials per product and per dose) on lymphoblasts of CDG-Ia diseases and their activities (“radioactivity”, i.e. inhibition, by competition, of the binding of 2-[^3H]mannose-1 phosphate; and cell “toxicity”) were assessed as a percentage relative to the controls (10 trials).

[2] = system: lymphoblasts of CDG-Ia diseases; assay: cell toxicity on lymphoblasts; type: cell-based; conditions: dose of 500 μM; for cell mortality / toxicity (in words): lymphoblasts, comparison with CP1, CP3 and CP6; for Toxicity (cell toxicity): percentage relative to the controls, lymphoblasts of CDG-Ia, 5 trials per product
Description: as §1, §2

Row | Compound | Radioactivity (inhibition, by competition, of the binding of 2-[3H]mannose-1 phosphate) [1] | cell mortality / toxicity (in words) [2] | Toxicity (cell toxicity) [2] | effectiveness in inhibiting the incorporation of radioactive mannose into glycoproteins (in words) [1]
1 | CCOC(=O)OC[C@H]1O[C@H](OP(=O)(OCOC(C)=O)OCOC(C)=O)[C@@H](OC(=O)OCC)[C@@H](OC(=O)OCC)[C@@H]1OC(=O)OCC [CP6, di(acetyloxymethyl) (2,3,4,6-tetra-O-ethyloxycarbonyl)-α-D-manno-pyranosyl-1) phosphate] | 91% | at least a doubling of cell mortality | 201% | –
2 | CC(C)(C)C(=O)OCOP(=O)(OCOC(=O)C(C)(C)C)O[C@H]1O[C@H](COC(=O)C(C)(C)C)[C@@H](OC(=O)C(C)(C)C)[C@H](OC(=O)C(C)(C)C)[C@@H]1OC(=O)C(C)(C)C [CP3, di(pivaloyloxymethyl) (2,3,4,6-tetra-O-pivaloyl-α-D-manno-pyranosyl-1) phosphate] | 90% | at least a doubling of cell mortality | 205% | –
3 | CC(=O)OC[C@H]1O[C@H](OP(=O)(OCOC(=O)C(C)(C)C)OCOC(=O)C(C)(C)C)[C@@H](OC(C)=O)[C@@H](OC(C)=O)[C@@H]1OC(C)=O [CP1, di(pivaloyloxymethyl) (2,3,4,6-tetra-O-acetyl)-α-D-mannopyranosyl-1] phosphate] | 92% | at least a doubling of cell mortality | 210% | –
4 | Benzyl di(2,3,4,6-tetra-O-isobutyryl-α-D-mannopyranosyl-1) phosphate [Ex. 12] | 25% | a lot less toxic | 112% | less effective than CP1, CP3 and CP6
5 | Di(2,3,4,6-tetra-O-isobutyryl-α-D-mannopyranosyl-1) hydrogen phosphate [Ex. 4] | 100% | less toxic | 100% | therapeutically less effective than Ex. 5, Ex. 11, Ex. 12 and Ex. 13
